For assay [1], the system named is BuGH3MLG. Nature of the assay: PAHBAH reducing sugar assay, […] nm. It counts as biochemical, Bacteroides uniformis. As to conditions: 30 min hydrolysis.
Assay [2] relates to BuGH3MLG. Nature of the assay: p-nitrophenol release, absorbance […] nm. As to conditions: sodium phosphate pH 5.7, 37 °C. It counts as biochemical, Bacteroides uniformis.

This note sets out measurements from publication doi:10.1101/2021.06.24.449719v1 (biorxiv, 2021).

For the molecule `OC[C@H]1O[C@@H](O[C@H]2[C@H](O)[C@@H](O)C(O)O[C@@H]2CO)[C@H](O)[C@@H](O)[C@@H]1O` (stereo partly shown) [Cellobiose], the Km (as a rule, the concentration of substrate that gives half-maximal velocity) in the assay with BuGH3MLG [1] worked out at 7.4 ± 1.24 µM.

As for `OC[C@H]1O[C@@H](O[C@H]2[C@H](O)[C@@H](O)[C@H](O[C@H]3[C@H](O)[C@@H](O)[C@H](O[C@H]4[C@H](O)[C@@H](O)C(O)O[C@@H]4CO)O[C@@H]3CO)O[C@@H]2CO)[C@H](O)[C@@H](O)[C@@H]1O` (stereo partly shown) [Cellotetraose], in the assay with BuGH3MLG [1], the Km was determined as 56.9 ± 9 µM.

With `OC[C@H]1O[C@@H](O[C@H]2[C@H](O)[C@@H](O)[C@H](O[C@H]3[C@H](O)[C@@H](O)C(O)O[C@@H]3CO)O[C@@H]2CO)[C@H](O)[C@@H](O)[C@@H]1O` (stereo partly shown) [Cellotriose], the Km in the assay with BuGH3MLG [1] turned out to be 26.1 ± 5.5 µM.

On to `OC[C@H]1O[C@@H](O[C@H]2[C@H](O)[C@@H](O)[C@H](O[C@H]3[C@H](O)[C@@H](O)[C@H](O[C@H]4[C@H](O)[C@@H](CO)OC(O)[C@@H]4O)O[C@@H]3CO)O[C@@H]2CO)[C@H](O)[C@@H](O)[C@@H]1O` (stereo partly drawn) [G4G4G3G, β-d-Glc^iv(1→4)β-d-Glc^iii(1→4)β-d-Glc^ii(1→3)-d-Glc^i], for which, in the assay on BuGH3MLG [1], the Km was 28.2 ± 6.2 µM. Same read-out and setting: to `OC[C@H]1O[C@@H](OC[C@H]2OC(O)[C@H](O)[C@@H](O)[C@@H]2O)[C@H](O)[C@@H](O)[C@@H]1O` (stereo partly shown) [Gentiobiose] belongs 241 ± 16.2 µM; to `OC[C@H]1O[C@@H](O[C@H]2[C@H](O)[C@@H](CO)OC(O)[C@@H]2O)[C@H](O)[C@@H](O)[C@@H]1O` (stereo partly shown) [Laminaribiose], 7.1 ± 1.2 µM. On the same count and under the same terms, to `OC[C@H]1O[C@@H](O[C@@H]2[C@@H](O)[C@H](O[C@@H]3[C@@H](O)[C@H](O[C@H]4[C@H](O)[C@@H](CO)OC(O)[C@@H]4O)O[C@H](CO)[C@H]3O)O[C@H](CO)[C@H]2O)[C@H](O)[C@@H](O)[C@@H]1O` (stereo partly shown) [Laminaritetrose] belongs 9.9 ± 1.1 µM; to `OC[C@H]1O[C@@H](O[C@@H]2[C@@H](O)[C@H](O[C@H]3[C@H](O)[C@@H](CO)OC(O)[C@@H]3O)O[C@H](CO)[C@H]2O)[C@H](O)[C@@H](O)[C@@H]1O` (stereo partly shown) [Laminaritriose], 7.5 ± 0.5 µM. For `O=[N+]([O-])c1ccc(O[C@@H]2O[C@H](CO)[C@@H](O[C@@H]3O[C@H](CO)[C@@H](O)[C@H](O)[C@H]3O)[C@H](O)[C@H]2O)cc1` [p-Nitrophenyl β-D-cellobioside], in the assay on BuGH3MLG [2], the Km was found to be 640 ± 90 µM. As for `O=[N+]([O-])c1ccc(O[C@@H]2O[C@H](CO)[C@@H](O)[C@H](O[C@@H]3O[C@H](CO)[C@@H](O)[C@H](O)[C@H]3O)[C@H]2O)cc1` [p-Nitrophenyl β-D-laminaribioside], the Km in the assay with BuGH3MLG [2] turned out to be 880 ± 160 µM. On the same count and under the same terms, to `O=[N+]([O-])c1ccc(O[C@@H]2O[C@H](CO)[C@@H](O)[C@H](O)[C@H]2O)cc1` [p-Nitrophenyl-β-D-glucopyranoside] belongs 530 ± 120 µM; to `CC(=O)N[C@H]1[C@H](Oc2ccc([N+](=O)[O-])cc2)O[C@H](CO)[C@@H](O)[C@@H]1O` [p-nitrophenyl-N-acetyl glucosaminide], 2900 ± 700 µM. In the case of `OC[C@H]1O[C@@H](O[C@H]2[C@H](O)[C@@H](O)[C@H](O[C@H]3[C@H](O)[C@@H](CO)OC(O)[C@@H]3O)O[C@@H]2CO)[C@H](O)[C@@H](O)[C@@H]1O` (stereo partly drawn) [β-D-cellobiosyl-glucose, β-d-Glc^iii(1→4)β-d-Glc^ii(1→3)-d-Glc^i], the Km with BuGH3MLG [1] is 41.3 ± 7 µM.
